Patent US9497963B2, “Methods and compositions for control of gypsy moth, Lymantria dispar” (Simon Fraser University, priority 2008, dated 2016)
Read-outs that look alike come from different tables or passages of the source.

Key:
[1] = tested on: male gypsy moth antenna response to pheromone (+)-1; experiment: EAG short-term (STI) and long-term (LTI) inhibition of pheromone signaling (Example 5); parameters: species or system Lymantria dispar; settings: for inhibition at 100 µg, 0.1 mg / inhibition at 0.001 mg / inhibition at 0.01 mg / inhibition at 0.1 mg: Lymantria dispar; for inhibition at 100 µg, 0.1 mg: read-out: Activity (%): long-term inhibition (LTI); for inhibition at 0.001 mg / inhibition at 0.01 mg / inhibition at 0.1 mg / Activity (%): short-term inhibition (STI): negative = enhancement; for inhibition at 0.001 mg / inhibition at 0.01 mg / inhibition at 0.1 mg: read-out: Activity (%): short-term inhibition (STI)
Method in brief: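 Excised male gypsy moth antenna in saline pH 6.8 under purified air (300 mL/min); 0.3 s puffs: air, (+)-1 100 ng, (+)-1 plus compound 1, 10, 100 μg per cartridge, then (+)-1 alone. STI: mixed-puff air-corrected depolarization loss versus first pheromone puff; LTI: final pheromone-puff loss.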

[2] = tested on: male gypsy moth antenna response to mixed pheromone/modulator plume; experiment: EAG peak broadening (PB) (Example 11); parameters: species or system Lymantria dispar; settings: mixed plume, 100 μg compound and 100 ng pheromone (puff v vs puff ii)
Protocol: A mixed pheromone/modulator plume could elicit a prolonged response (FIG. 1A, puff v; FIG. 2), and this was termed peak broadening (PB). PB was calculated from the EAG traces as follows: PB=100×(Δtv−Δtii)/Δtii
Where Δt was the width of the EAG peak (in s) from the start of the depolarization to the return to background potential.

[3] = tested on: male gypsy moth antenna; experiment: Coupled gas chromatographic-electroantennographic detection (GC-EAD); parameters: species or system Lymantria dispar; settings: EAD peak size and shape (sharp/broad)
Method in brief: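 GC column effluent split between flame ionization detector and an excised male moth antenna held between saline-filled glass capillary electrodes, tip removed, in a warm air stream. Antennal potentials assigned to compounds by matching retention times with FID peaks.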

[4] = tested on: L. dispar PBP 2; experiment: Pheromone-binding protein (PBP) ligand binding assay, PBP2; parameters: species or system Lymantria dispar
Protocol: (§1) A. The protein and ligand are incubated in buffer overnight. B. For half of the incubation mixture, the free ligand (L) is separated from the protein-bound ligand (P.L) by size-exclusion chromatography on P2 Gel (BioRad, exclusion limit 2000 Da). The protein elutes from the small column bed, with its ligand bound (see Examples and […] et al. 2000; Staddon and Everton 1980), while the free ligand is retained on the column ([…] et al. 2000). C. […] The extract from the filtrate (B) contains the protein-bound ligand and the extract from the incubation mixture (A) contains all the ligand (bound and free) present in the aqueous phase. The extracts are analyzed by GC-MS, to obtain values for total ligand in solution (L+P.L) and for protein-bound ligand (P.L). These can then be used to calculate % bound (Table 3). These assays were performed as described in FIG. 3 and as follows: L. dispar PBP 1 or PBP 2 was incubated with the test compound or mini-library. The PBP and the ligand(s) (L) were left to equilibrate (eq 2) overnight. The non-bound ligand was then separated from the protein-bound material (PBP.L) by size-exclusion chromatography. By determining the total ligand in solution at equilibrium (eq. 3) and the protein-bound ligand, it is possible to estimate the percentage of ligand bound to the protein at equilibrium (eq. 4). […] This binding assay has been validated extensively in previous studies ([…] et al. 2000). The components of each mini-library separated cleanly by GC, so it was possible to monitor binding of individual components. PBP+L⇄PBP·L (eq. 2) [L]tot=[L]+[PBP·L] (eq. 3) % bound=100×[PBP·L]/[L]tot (eq. 4) Results: The members of each mini-library separated cleanly by GC, therefore it was possible to monitor binding of individual members to PBP1 or PBP2, the two known PBPs in the gypsy moth, by extraction from the aqueous incubation mixture, followed by GC analysis of the extract (FIG. 3).

[5] = tested on: L. dispar PBP 1; experiment: Pheromone-binding protein (PBP) ligand binding assay, PBP1; parameters: species or system Lymantria dispar
Protocol: as §1

[6] = tested on: male gypsy moth antennae response to pheromone (+)-1 with plant odors; experiment: Effect on mixed pheromone/plant odorant stimulus, EAG (Example 8, second objective); parameters: species or system Lymantria dispar; settings: (+)-1 100 ng + 1-hexanol 100 μg, no antagonist
Protocol: A second objective for this experiment was to determine whether the oak volatiles, methyl eugenol and 1-hexanol, can enhance the antennal response to (+)-1 and whether the mixed pheromone/plant odorant stimulus can be inhibited by compound 3c{2,3} or DEET. The puff order was: i) air, ii) pure (+)-1 (100 ng), iii) (+)-1 (100 ng) and plant odorant (1 μg for methyl eugenol and 100 μg for 1-hexanol), iv) (+)-1 and plant odorant as in iii+antagonist (100 μg), v) same as in iii. Depolarizations were corrected for the air response as in Eq. 1 and the short-term effects were calculated for puff iii relative to puff ii, and for puff iv relative to puff ii. Long-term effects were calculated for puff v relative to puff iii (for LTI of the mixed pheromone/plant odorant plume) and for puff v relative to puff ii (to determine whether long-term effects of the plant odorant and of the antagonist cancel).

[7] = tested on: male gypsy moth antenna response to odorants other than (+)-1; experiment: Long-term inhibition of responses to other pheromone and host plant odorants, EAG (Example 8, first objective); parameters: species or system Lymantria dispar
Protocol: To determine whether the long-term inhibitory effects of 3c{2,3} and DEET are specific to (+)-1 or also apply to other odorants, compound 3c{2,3} and DEET were tested further with other odorants: (−)-1, racemic 1, dispar alkene, methyl eugenol and 1-hexanol.
These included (−)-1, racemic 1, dispar alkene (the alkene corresponding to the carbon framework of 1), methyl eugenol (a characteristic oak wood odorant) and 1-hexanol (a green leaf volatile, shown previously to be detected by gypsy moth antennae). For the pure odorant puffs, (−)-1 and racemic 1 were administered at 100 ng/cartridge, the alkene, methyl eugenol was administered at 1 μg/cartridge and 1-hexanol was administered at 100 μg/cartridge. The antagonists were both administered at 100 μg/cartridge, mixed with the appropriate dose of the odorant. The puff order was: i) air, ii) pure odorant, iii) odorant+antagonist, iv) pure odorant. All puffs were corrected for the air response as in Eq. 1. STI values were obtained from the depolarization […]. LTI values were obtained by comparing the depolarization of puff iv relative to that of puff ii.

[8] = tested on: third instar gypsy moth larvae; experiment: Feeding deterrence, oak leaf disc choice test (Example 13); assay type: in vivo, Lymantria dispar; settings: third instar larvae, oak leaf discs, choice between treated and control disc for 17.5 hours; ((C−T)/(C+T))*100
Protocol: Gypsy moth larvae were tested at the Canadian Forest Service, for feeding deterrence. A selected set of compounds, based on the results with the electroantennogram testing and also based on feeding deterrence assay results with the cabbage looper, T. ni. The experiment was done with third instar larvae and oak leaf discs. Larvae were left to choose between a treated and a control disc for 17.5 hours. Measurements of leaf areas were used to calculate the amount of leaf consumed from control (C) and treated (T) leaves. Feeding deterrence was calculated using the following formula: ((C−T)/(C+T))*100, and expressed in percent, where C=area of control leaf consumed and T=area of treated leaf consumed.

[9] = mixed plume (+)-1 100 ng + compound 1 μg, mean ± S.E.
[10] = mixed plume (+)-1 100 ng + compound 10 μg, mean ± S.E.
[11] = mixed plume (+)-1 100 ng + compound 100 μg (puff v), mean ± S.E.
[12] = pure (+)-1 100 ng plume following mixed plume with 100 μg compound, mean ± S.E.
[13] = member tested within library 3c{1, 1-5}
[14] = member tested within library 3c{2, 1-5}
[15] = member tested within library 3c{5, 1-5}
[16] = member tested within library 3c{4, 1-5}
[17] = tested as single compound, means ± S.E., 4 replicates

Structure (SMILES) | activity (% peak broadening) [2] [%] | GC-EAD activity [3] | inhibition at 0.001 mg [1, 9] [%] | inhibition at 0.01 mg [1, 10] [%] | inhibition at 0.1 mg [1, 11] [%] | inhibition at 100 µg, 0.1 mg [1, 12] [%] | also measured
COc1ccccc1OC [3a{1,1}, 1,2-Dimethoxy benzene] | 99 ± 25 | ++ sharp |  |  |  |  | inhibition at 100 µg, 0.1 mg [1]: 18 ± 13%
CCOc1ccccc1OCC [3a{2,2}, 1,2-Diethoxy benzene] | 106 ± 32 | + sharp | -10 ± 29 | -23 ± 42 | -22 ± 69 | 15 ± 11 | 
CCCOc1ccccc1OCCC [3a{3,3}, 1,2-Dipropoxy benzene] | 80 ± 31 | ++ sharp | 37 ± 14 | 4 ± 21 | -11 ± 36 | 36 ± 9 | 
CCCCOc1ccccc1OCCCC [3a{4,4}, 1,2-Dibutoxy benzene] | 86 ± 32 | + broad | -48 ± 28 | 14 ± 31 | 27 ± 29 | 49 ± 12 | 
C=CCOc1cccc(OCC)c1 [3b{2,6}, 1-allyloxy-3-ethoxybenzene] | 77 ± 33 | None | -115 ± 43 | -17 ± 54 | -50 ± 74 | 25 ± 8 | 
CCOc1ccc(OC)cc1 [3c{1,2}, 1-ethoxy-4-methoxy benzene] |  | ++ sharp |  |  |  |  | PBP2 (% bound) [4, 13]: 12 ± 1.5%; PBP2 (% bound) [4, 14]: 40 ± 0.1%; PBP1 (% bound) [5, 13]: 15 ± 0.4%; PBP1 (% bound) [5, 14]: 30 ± 0.2%
COc1ccc(OCCC(C)C)cc1 [3c{1,5}, 1-methoxy-4-(3-methyl-butyloxy) benzene] |  | None |  |  |  |  | PBP2 (% bound) [4, 13]: 2 ± 2.5%; PBP2 (% bound) [4, 15]: 5 ± 0.1%; PBP1 (% bound) [5, 13]: 1 ± 0.7%; PBP1 (% bound) [5, 15]: 7 ± 0.1%
CCOc1ccc(OCCC(C)C)cc1 [3c{2,5}, 1-ethoxy-4-(3-methyl-butyloxy) benzene] |  | None |  |  |  |  | PBP2 (% bound) [4, 14]: 14 ± 0.2%; PBP2 (% bound) [4, 15]: 3 ± 0.03%; PBP1 (% bound) [5, 14]: 4 ± 0.2%; PBP1 (% bound) [5, 15]: 2 ± 0.1%
CCCCOc1ccc(OCCC)cc1 [3c{3,4}, 1-butoxy-4-propoxy benzene] |  | None | -11 ± 18 | -90 ± 23 | -180 ± 26 | 22 ± 12 | PBP1 (% bound) [5, 16]: 4 ± 0.3%
CCCOc1ccc(OCCC(C)C)cc1 [3c{3,5}, 1-(3-methyl-butyloxy)-4-propoxy benzene] |  | None | 10 ± 11 | -120 ± 20 | -145 ± 35 | 4 ± 7 | PBP2 (% bound) [4, 15]: 2 ± 0.02%; PBP1 (% bound) ([5]; member tested within library 3c{3, 1-5}): 1 ± 0.2%; PBP1 (% bound) [5, 15]: 3 ± 0.1%
CCCCOc1ccc(OCCCC)cc1 [3c{4,4}, 1,4-Dibutoxy benzene] |  |  | -107 ± 41 | -90 ± 57 |  | 7 ± 14 | PBP2 (% bound) [4, 17]: 8 ± 0.3%; PBP1 (% bound) [5, 17]: 4 ± 0.1%
CCCCOc1ccc(OCCC(C)C)cc1 [3c{4,5}, 1-butoxy-4-(3-methyl-butyloxy) benzene] |  | None |  |  |  |  | PBP1 (% bound) [5, 16]: 4 ± 0.4%
CCCCCCO [Compound 1-hexanol, 1-hexanol, reference compound] |  |  |  |  |  |  | short-term effect with the plant synergist [6]: −19 ± 24 (10); EAG response to the pure odorant (in words) [7]: weak odorant
C=CCc1ccc(OCCC)c(OC)c1 [Pr eugenol] |  | None |  |  |  |  | Feeding Deterrence (%) [8]: 52.67%; Activity (%): short-term inhibition (STI) [1, 9]: 18 ± 37 (6) %; Activity (%): short-term inhibition (STI) [1, 10]: 39 ± 23 (6) %; Activity (%): short-term inhibition (STI) [1, 11]: −79 ± 25 (6) %; Activity (%): long-term inhibition (LTI) [1, 12]: 7 ± 6 (6) %
